This note sets out measurements from patent publication US20100227873A1, “NITROGEN-CONTAINING HETEROCYCLIC COMPOUNDS AND METHODS OF USE THEREOF” (Schering Corporation, priority 2005, published 2010).

The target of the experiment is recombinant human nicotinic acid receptor (NAR) (Homo sapiens, UniProt Q8TDS4). Nature of the experiment: Nicotinic acid receptor assay: inhibition of forskolin-stimulated cAMP accumulation (MesoScale Discovery cAMP detection kit) in CHO cells. It is filed as cell-based. The settings on record: CHO cells expressing recombinant human NAR, activity class, read-out: NA EC50 camp. How it is done: The nicotinic acid receptor agonist activity of the inventive compounds was determined by following the inhibition of forskolin-stimulated cAMP accumulation in cells using the MesoScale Discovery cAMP detection kit following the manufacturer's protocol. Briefly, Chinese Hamster Ovary (CHO) cells expressing recombinant human nicotinic acid receptor (NAR) were harvested enzymatically, washed 1× in phosphate buffered saline (PBS) and resuspended in PBS containing 0.5 mM IBMX at 3×10^6 cells/mL. Ten μL of cell suspension was added to each well of a 384-well plate which contained 10 μL of test compounds. Test compounds were diluted with PBS containing 6 μM of forskolin. Plates were incubated for 30 minutes at room temperature after the addition of cells. Lysis buffer containing cAMP-Tag was added to each well (10 μL/well) as per the manufacturer's protocol. Plates were then incubated from 45 minutes to overnight. Prior to reading, 10 μt of read buffer was added to each well, and the plate was read in a Sector 6000 plate imager. The signal was converted to cAMP concentration using a standard curve run on each plate. Compound EC50 values were determined from concentration gradients of test compounds.
Chain of recombinant human nicotinic acid receptor (NAR) (Q8TDS4 whole entry): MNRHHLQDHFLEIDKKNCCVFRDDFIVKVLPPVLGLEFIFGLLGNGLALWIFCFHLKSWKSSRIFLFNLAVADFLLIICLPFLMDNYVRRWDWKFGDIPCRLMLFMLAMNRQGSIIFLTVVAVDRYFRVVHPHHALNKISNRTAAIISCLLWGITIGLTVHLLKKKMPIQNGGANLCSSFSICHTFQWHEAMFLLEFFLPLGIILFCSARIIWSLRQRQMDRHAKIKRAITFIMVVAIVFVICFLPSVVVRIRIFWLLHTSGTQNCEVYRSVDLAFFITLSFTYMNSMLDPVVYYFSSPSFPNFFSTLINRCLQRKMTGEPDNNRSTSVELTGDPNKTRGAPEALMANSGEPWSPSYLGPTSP
(cAMP levels reflect the balance of adenylyl cyclase and phosphodiesterase activity.)

A word on the EC50: it is the concentration at which the effect is half-maximal. For `O=c1[nH]c(=O)c2c(Cc3cccc(Br)c3)cc(=O)oc2[nH]1` [Compound 238], the EC50 lay in the range of 100 to 1000 nM.
